Common to all, as to assay: Antibacterial activity (MIC)
What all share (assay type): cell-based

For experiment [1], the system named is Staphylococcus aureus 209-P.
In experiment [2] the test system is Escherichia coli NIHJ.
In experiment [3] the test system is Klebsiella pneumoniae EK-6. To be noted: EK6.
For experiment [4], the system named is Proteus morganii EP-14. To be noted: Morganella morganii, EP14.
Experiment [5] concerns Pseudomonas aeruginosa EP-172. As to conditions: EP172.
Experiment [6] deals with Serratia marcescens ES-75. To be noted: ES75.

Values after ≈ are worked out from the molar mass of the structure shown. Where only a bound is given, the exact number is not on record here.

Take `O=C(O)Cn1nnnc1SCC1=C(C(=O)O)N2C(=O)[C@@H](NC(=O)[C@H](NC(=O)c3coc4cc(O)c(O)cc4c3=O)c3ccc(O)cc3)[C@H]2SC1` [Preparatory Example 2 B, 7β-[D-2-(6,7-Dihydroxychromone-3-carboxyamido)-2-(4-hydroxyphenyl)acetamido]-3-[(1-carboxymethyl-5-tetrazolyl)thiomethyl]-cephem-4-carboxylic acid]: the MIC in experiment [1] was 3.13 µg/mL (≈ 4.31 µM); in experiment [2], 0.4 µg/mL (≈ 0.551 µM); in experiment [3] it was at most 0.1 µg/mL; in experiment [4] it was 12.5 µg/mL (≈ 17.2 µM); in experiment [5] it was 0.8 µg/mL (≈ 1.1 µM); in experiment [6] it was at most 0.1 µg/mL.
Consider `CCOC(=O)Oc1cc2occ(C(=O)N[C@@H](C(=O)N[C@@H]3C(=O)N4C(C(=O)O)=C(CSc5nnnn5CC(=O)O)CS[C@H]34)c3ccc(O)cc3)c(=O)c2cc1OC(=O)OCC` [Preparatory Example 2 A, 7β-[D-2-{6,7-bis(ethoxycarbonyloxy)chromone-3-carboxamido}-2-(4-hydroxyphenyl)acetamido]-3-[(1-carboxymethyl-5-tetrazolyl)thiomethyl]-3-cephem-4-carboxylic acid], for which the minimal inhibitory concentration (MIC) in experiment [1] is 6.25 µg/mL (≈ 7.19 µM); in experiment [2] it was 0.4 µg/mL (≈ 0.46 µM); in experiment [3], at most 0.05 µg/mL; in experiment [4] it was 1.56 µg/mL (≈ 1.79 µM); in experiment [5], 0.8 µg/mL (≈ 0.92 µM); in experiment [6] it was at most 0.05 µg/mL.

The values are drawn from EP0054578A1, “N-(substituted chromone-3-carbonyl)-phenylglycine derivatives” (Eisai Co., Ltd., priority 1980, dated 1982).
